Results from paper PMC7725003, “Systematically Studying the Optimal Amino Acid Distribution Patterns of the Amphiphilic Structure by Using the Ultrashort Amphiphiles” (Frontiers in Microbiology, 2020).
Where two headings read alike, the source gives them in different places. Where no end group is shown, it is not given here.

What was measured:
Gram-negative bacteria [1] = settings: geometric mean of MBCs, 9 Gram-negative strains (Table 2)
S. pullorum 7913 = assay type: cell-based, Salmonella pullorum
Experimental: (§1) The antimicrobial activities of the peptides were measured using a method adapted from the National Committee for Clinical Laboratory Standards (NCCLS) with some modifications ([Chou et al., 2016]). The specific procedure for these assays has been previously described. In brief, the bacterial cells were grown to a mid-logarithmic phase and diluted in MHB to an ultimate concentration of 0.5–1 × 10^6 CFU mL^–1. Subsequently, the peptides were consecutively diluted in a 0.2% BSA solution and then added to a bacterial solution in a 96-well plate at identical volumes. After incubation for 24 h at 37°C, the MICs were determined to be the lowest peptide concentration that inhibited 95% of the bacterial growth by monitoring the absorbance at 492 nm using a microplate reader. Subsequently, 50 μL of each incubation mixture was further transferred to agar plates and incubated overnight. The minimum bactericidal concentrations (MBCs) were determined as the lowest peptide concentration that killed greater than 99.9% of the bacterial cells. Every assay was reproduced more than 3 times.

[2] = system: Listeria monocytogenes CGMCC 1.1075; assay type: cell-based
Experimental: as §1

E. coli UB1005 = assay type: cell-based, Escherichia coli
Experimental: as §1

E. coli O78 = assay type: cell-based, Escherichia coli
Experimental: as §1

E. coli 25922 = assay type: cell-based, Escherichia coli
Experimental: as §1

S. typhimurium 14028 = assay type: cell-based, Salmonella typhimurium
Experimental: as §1

S. typhimurium 7731 = assay type: cell-based, Salmonella typhimurium
Experimental: as §1

E. coli ATCC 25922 = assay: Salt sensitivity assay (MIC); assay type: cell-based, Escherichia coli; settings: for MIC, FeCl3: 4 μM FeCl3; for MIC, NH4Cl: 6 μM NH4Cl; for MIC, ZnCl2: 8 μM ZnCl2; for MIC, MgCl2: 1 mM MgCl2; for MIC, CaCl2: 2 mM CaCl2; for MIC, KCl: 4.5 mM KCl; for MIC, NaCl: 150 mM NaCl; for MIC, Control: no added salt, three independent assays
Experimental: as §1
(§2) The salt sensitivities of the peptides were determined. E. coli ATCC 25922 and S. aureus ATCC 29213 were incubated in the presence of various ultimate concentrations of physiological salts (150 mM NaCl, 4.5 mM KCl, 6 μM NH4Cl, 8 μM ZnCl2, 1 mM MgCl2, 2mM CaCl2, and 4 μM FeCl3) according to our previous protocol ([Yang et al., 2019]). These tests were performed under the MICs, and three independent assays were performed.

P. aeruginosa 27853 = assay type: cell-based, Pseudomonas aeruginosa
Experimental: as §1

S. aureus 29213 [3] = assay: Salt sensitivity assay (MIC); assay type: cell-based, Staphylococcus aureus; settings: for MIC, FeCl3: 4 μM FeCl3; for MIC, NH4Cl: 6 μM NH4Cl; for MIC, ZnCl2: 8 μM ZnCl2; for MIC, MgCl2: 1 mM MgCl2; for MIC, CaCl2: 2 mM CaCl2; for MIC, KCl: 4.5 mM KCl; for MIC, NaCl: 150 mM NaCl; for MIC, Control: no added salt, three independent assays
Experimental: as §1, §2

MRSA 43300 = assay type: cell-based, methicillin-resistant S. aureus
Experimental: as §1

S. epidermidis 12228 = assay type: cell-based, Staphylococcus epidermidis
Experimental: as §1

E. coli K99 = system: E. coli K99
Experimental: as §1, with “The minimum bactericidal concentrations (MBCs) were determined as the lowest peptide concentration that killed greater than 99.9% of the bacterial cells.” left out

E. coli K88 = system: E. coli K88
Experimental: as §1, with “The minimum bactericidal concentrations (MBCs) were determined as the lowest peptide concentration that killed greater than 99.9% of the bacterial cells.” left out

Gram-negative bacteria [4] = system: Gram-negative bacteria
Experimental: (§3) The antimicrobial activity of AMPs is the most decisive index for evaluating the clinical application of antimicrobial drugs.
as §1, with “The minimum bactericidal concentrations (MBCs) were determined as the lowest peptide concentration that killed greater than 99.9% of the bacterial cells.” left out

Gram-positive bacteria [5] = system: Gram-positive bacteria
Experimental: as §3
as §1, with “The minimum bactericidal concentrations (MBCs) were determined as the lowest peptide concentration that killed greater than 99.9% of the bacterial cells.” left out

E. faecalis 29212 = assay type: cell-based, Enterococcus faecalis
Experimental: as §1

S. aureus 29213 [6] = assay type: cell-based, Staphylococcus aureus
Experimental: as §1

S. aureus 25923 = assay type: cell-based, Staphylococcus aureus
Experimental: as §1

B. subtilis 63501 = assay type: cell-based, Bacillus subtilis
Experimental: as §1

Gram-positive bacteria [7] = settings: geometric mean of MBCs, 7 Gram-positive strains (Table 2)
[8] = system: all of the tested bacterial strains; assay: Geometric mean of MICs, all tested bacterial strains; assay type: cell-based
Description: The antimicrobial activity of AMPs is the most decisive index for evaluating the clinical application of antimicrobial drugs. Many antimicrobial agents inhibit bacterial growth rather than kill the bacteria quickly, and long-term infections are pathogens that are not completely killed, which results in bacterial severe drug resistance. […] The geometric mean (GM) values of the MICs/MBCs of the two series across all of the tested bacterial strains are represented in Table 3, which depicts the average bacteriostatic/bactericidal level of a peptide.
as §1

[9] = MHB, 24 h 37°C, 95% growth inhibition
[10] = value in brackets, >99.9% of cells killed
[11] = therapeutic index TI = MHC/GM MIC
[12] = geometric mean of MICs (Table 3)

Polymyxin B [reference compound]
GM MBC (Gram-negative bacteria [1]): 5.88 µM
MIC (S. pullorum 7913; [9]): 4 µM
MBC (S. pullorum 7913; [10]): 8 µM
MIC [2, 9]: 32 µM
MBC [2, 10]: > 64 µM
MIC (E. coli UB1005; [9]): 2 µM
MBC (E. coli UB1005; [10]): 4 µM
MIC (E. coli O78; [9]): 2 µM
MBC (E. coli O78; [10]): 4 µM
MIC (E. coli 25922; MHB, 0.5–1 × 10^6 CFU/mL, 24 h 37°C, lowest concentration inhibiting 95% of growth (A492), more than 3 repeats): 4 µM
MBC (E. coli 25922; value in brackets, agar plating, lowest concentration killing >99.9% of cells): 8 µM
MIC (S. typhimurium 14028; [9]): 4 µM
MBC (S. typhimurium 14028; [10]): 8 µM
MIC (S. typhimurium 7731; [9]): 2 µM
MBC (S. typhimurium 7731; [10]): 4 µM
MIC, FeCl3 (E. coli ATCC 25922): 4 µM
MIC, NH4Cl (E. coli ATCC 25922): 4 µM
MIC, ZnCl2 (E. coli ATCC 25922): 4 µM
MIC, MgCl2 (E. coli ATCC 25922): 4 µM
MIC, CaCl2 (E. coli ATCC 25922): 8 µM
MIC, KCl (E. coli ATCC 25922): 8 µM
MIC, NaCl (E. coli ATCC 25922): 8 µM
MIC, Control (E. coli ATCC 25922): 4 µM
MIC (P. aeruginosa 27853; [9]): 8 µM
MBC (P. aeruginosa 27853; [10]): 16 µM
MIC, FeCl3 (S. aureus 29213 [3]): 16 µM
MIC, NH4Cl (S. aureus 29213 [3]): 16 µM
MIC, ZnCl2 (S. aureus 29213 [3]): 16 µM
MIC, MgCl2 (S. aureus 29213 [3]): 16 µM
MIC, CaCl2 (S. aureus 29213 [3]): 64 µM
MIC, KCl (S. aureus 29213 [3]): 16 µM
MIC, NaCl (S. aureus 29213 [3]): 32 µM
MIC, Control (S. aureus 29213 [3]): 16 µM
MIC (MRSA 43300; [9]): 2 µM
MBC (MRSA 43300; [10]): 4 µM
MIC (S. epidermidis 12228; [9]): 2 µM
MBC (S. epidermidis 12228; [10]): 4 µM
MIC (E. coli K99; [9]): 2 µM
MBC (E. coli K99; [10]): 4 µM
MIC (E. coli K88; [9]): 2 µM
MBC (E. coli K88; [10]): 4 µM
GM MIC (Gram-negative bacteria [4]; geometric mean of MICs, 9 Gram-negative strains (Table 2)): 2.94 µM
GM MIC (Gram-positive bacteria [5]; geometric mean of MICs, 7 Gram-positive strains (Table 2)): 4.42 µM
MIC (E. faecalis 29212; [9]): 32 µM
MBC (E. faecalis 29212; [10]): > 64 µM
MIC (S. aureus 29213 [6]; [9]): 4 µM
MBC (S. aureus 29213 [6]; [10]): 8 µM
MIC (S. aureus 25923; [9]): 2 µM
MBC (S. aureus 25923; [10]): 4 µM
MIC (B. subtilis 63501; [9]): 1 µM
MBC (B. subtilis 63501; [10]): 2 µM
GM MBC (Gram-positive bacteria [7]): 10.77 µM

WWRWRRRWW-NH2 [W2]
MBC (S. pullorum 7913; 7913, 24 h): 8 µM
MIC (S. pullorum 7913; 7913, 24 h): 4 µM
MBC ([2]; CGMCC 1.1075, 24 h): 32 µM
MIC ([2]; CGMCC 1.1075, 24 h): 16 µM
GM, All ([8]; geometric mean of MICs across all tested strains): 4.18 µM
TI, All [8, 11]: 61.24
MBC (E. coli UB1005; UB1005, 24 h): 8 µM
MIC (E. coli UB1005; UB1005, 24 h): 4 µM
MBC (E. coli O78; O78, 24 h): 16 µM
MIC (E. coli O78; O78, 24 h): 8 µM
MBC (E. coli 25922; 25922, 24 h): 8 µM
MIC (E. coli 25922; 25922, 24 h): 4 µM
MBC (S. typhimurium 14028; 14028, 24 h): 16 µM
MIC (S. typhimurium 14028; 14028, 24 h): 8 µM
MBC (S. typhimurium 7731; 7731, 24 h): 8 µM
MIC (S. typhimurium 7731; 7731, 24 h): 4 µM
MIC, FeCl3 (E. coli ATCC 25922): 8 µM
MIC, NH4Cl (E. coli ATCC 25922): 4 µM
MIC, ZnCl2 (E. coli ATCC 25922): 4 µM
MIC, MgCl2 (E. coli ATCC 25922): 4 µM
MIC, CaCl2 (E. coli ATCC 25922): 8 µM
MIC, KCl (E. coli ATCC 25922): 4 µM
MIC, NaCl (E. coli ATCC 25922): 16 µM
MIC, Control (E. coli ATCC 25922): 4 µM
MBC (P. aeruginosa 27853; 27853, 24 h): 32 µM
MIC (P. aeruginosa 27853; 27853, 24 h): 16 µM
MIC, FeCl3 (S. aureus 29213 [3]): 4 µM
MIC, NH4Cl (S. aureus 29213 [3]): 2 µM
MIC, ZnCl2 (S. aureus 29213 [3]): 4 µM
MIC, MgCl2 (S. aureus 29213 [3]): 4 µM
MIC, CaCl2 (S. aureus 29213 [3]): 4 µM
MIC, KCl (S. aureus 29213 [3]): 4 µM
MIC, NaCl (S. aureus 29213 [3]): 4 µM
MIC, Control (S. aureus 29213 [3]): 2 µM
MBC (MRSA 43300; 43300, 24 h): 4 µM
MIC (MRSA 43300; 43300, 24 h): 2 µM
MBC (S. epidermidis 12228; 12228, 24 h): 4 µM
MIC (S. epidermidis 12228; 12228, 24 h): 2 µM
GM, Gram-negative bacteria (Gram-negative bacteria [4]; [12]): 5.44 µM
TI, Gram-negative bacteria (Gram-negative bacteria [4]; [11]): 47.06
GM, Gram-positive bacteria (Gram-positive bacteria [5]; [12]): 2.97 µM
TI, Gram-positive bacteria (Gram-positive bacteria [5]; [11]): 86.20
MBC (E. faecalis 29212; 29212, 24 h): 16 µM
MIC (E. faecalis 29212; 29212, 24 h): 8 µM
MBC (S. aureus 29213 [6]; 29213, 24 h): 4 µM
MIC (S. aureus 29213 [6]; 29213, 24 h): 2 µM
MBC (S. aureus 25923; 25923, 24 h): 4 µM
MIC (S. aureus 25923; 25923, 24 h): 2 µM
MBC (B. subtilis 63501; 63501, 24 h): 2 µM
MIC (B. subtilis 63501; 63501, 24 h): 1 µM
